Test results from patent US7442791B2, “Aminoalkylamide substituted cyclohexyl derivatives” (Hoffmann-La Roche Inc., priority 2003, dated 2008).
Read-outs that look alike come from different tables or passages of the source.

How the values were obtained:
[1] = target: T1, Human Liver Microsomal 2,3-oxidosqualene-lanosterol Cyclase (OSC) (Homo sapiens, UniProt P48449); experiment: Inhibition of human liver microsomal 2,3-oxidosqualene-lanosterol cyclase (OSC); assay type: biochemical; conditions: read-out: percentage OSC inhibition against controls
T1 construct: Liver microsomes from a healthy volunteer were prepared in sodium phosphate buffer (pH 7.4); from tissue; host or cells: human liver microsomes (healthy volunteer)
T1 sequence (P48449 1-732): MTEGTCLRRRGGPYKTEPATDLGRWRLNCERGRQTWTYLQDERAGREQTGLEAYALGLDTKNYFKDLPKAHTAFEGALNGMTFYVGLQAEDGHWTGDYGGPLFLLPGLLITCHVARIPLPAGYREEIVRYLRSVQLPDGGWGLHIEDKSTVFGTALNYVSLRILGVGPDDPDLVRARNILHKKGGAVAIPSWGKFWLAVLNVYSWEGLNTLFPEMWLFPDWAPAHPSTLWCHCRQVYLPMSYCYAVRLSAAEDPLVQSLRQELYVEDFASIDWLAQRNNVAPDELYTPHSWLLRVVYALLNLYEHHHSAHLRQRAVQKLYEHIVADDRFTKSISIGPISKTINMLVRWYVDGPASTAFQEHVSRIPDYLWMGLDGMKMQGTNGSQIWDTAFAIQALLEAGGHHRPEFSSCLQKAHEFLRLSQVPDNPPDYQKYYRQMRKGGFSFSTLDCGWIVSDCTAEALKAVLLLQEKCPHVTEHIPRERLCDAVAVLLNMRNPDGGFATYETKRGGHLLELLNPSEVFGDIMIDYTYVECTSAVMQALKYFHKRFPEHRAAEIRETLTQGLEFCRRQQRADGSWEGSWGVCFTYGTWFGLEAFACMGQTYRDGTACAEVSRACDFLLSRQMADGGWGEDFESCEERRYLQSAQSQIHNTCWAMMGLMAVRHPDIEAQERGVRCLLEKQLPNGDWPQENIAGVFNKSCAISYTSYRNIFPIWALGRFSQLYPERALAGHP
Description: Inhibition of Human Liver Microsomal 2,3-oxidosqualene-lanosterol Cyclase (OSC)
Liver microsomes from a healthy volunteer were prepared in sodium phosphate buffer (pH 7.4). The OSC activity was measured in the same buffer, which also contained 1 mM EDTA and 1 mM dithiothreitol. The microsomes were diluted to 0.8 mg/ml protein in cold phosphate buffer. Dry [^14C]R,S-monooxidosqualene (MOS, 12.8 mCi/mmol) was diluted to 20 nCi/μl with ethanol and mixed with phosphate buffer-1% BSA (bovine serum albumin). A stock solution of 1 mM test substance in DMSO was diluted to the desired concentration with phosphate buffer-1% BSA. 40 μl of microsomes were mixed with 20 μl of the solution of the test substance and the reaction was subsequently started with 20 μl of the [^14C]R,S-MOS solution. The final conditions were 0.4 mg/ml of microsomal proteins and […] of [^14C]R,S-MOS in phosphate buffer, pH 7.4, containing 0.5% albumin, DMSO<0.1% and ethanol<2%, in a total volume of 80 μl.
After 1 hour at 37° C. the reaction was stopped by the addition of 0.6 ml of 10% KOH-methanol, 0.7ml of water and 0.1 ml of hexane:ether (1:1, v/v) which contained 25 μg of non-radioactive MOS and 25 μg of lanosterol as carriers. After shaking, 1 ml of hexane:ether (1:1, v/v) was added to each test tube, these were again shaken and then centrifuged. The upper phase was transferred into a glass test tube, the lower phase was again extracted with hexane:ether and combined with the first extract. The entire extract was evaporated to dryness with nitrogen, the residue was suspended in 50 μl of hexane:ether and applied to a silica gel plate. Chromatographic separation was effected in hexane:ether (1:1, v/v) as the eluent. The Rf values for the MOS substrate and the lanosterol product were 0.91 and, respectively, 0.54. After drying, radioactive MOS and lanosterol were observed on the silica gel plate. The ratio of MOS to lanosterol was determined from the radioactive bands in order to determine the yield of the reaction and OSC inhibition.
The test was carried out on the one hand with a constant test substance concentration of 100 nM and the percentage OSC inhibition against controls was calculated.
In addition, the test was carried out with different test substance concentrations and subsequently the IC50 value was calculated, i.e. the concentration required to reduce the conversion of MOS into lanosterol to 50% of the control value.

[2] = constant test substance concentration of 100 nM, human liver microsomes, [14C]R,S-MOS, 1 hour at 37° C.

| SMILES | inhibition at 0.1 µM [1, 2] [%] | also measured |
| --- | --- | --- |
| CN(C)CCN(C)C(=O)[C@H]1CC[C@H](N(C)S(=O)(=O)c2ccc(C(F)(F)F)cc2)CC1 [Example 4.4, trans-4-[methyl-(4-trifluoromethyl-benzenesulfonyl)-amino]-cyclohexanecarboxylic acid (2-dimethylamino-ethyl)-methyl-amide] |  | melting point: 83 °C |
| CN(C)CCN(C)C(=O)[C@H]1CC[C@H](CN(C)C(=O)Oc2ccc(Cl)cc2)CC1 [Example 5.4, trans-{4-[(2-dimethylamino-ethyl)-methyl-carbamoyl]-cyclohexylmethyl}-methyl-carbamic acid 4-chloro-phenyl ester] |  | inhibition at 0.1 µM [1]: 51% |
| CN(C)CCN(C)C(=O)CCO[C@H]1CC[C@H](N(C)S(=O)(=O)c2ccc(C(F)(F)F)cc2)CC1 [Example 1.6, trans-N-(2-dimethylamino-ethyl)-N-methyl-3-{4-[methyl-(4-trifluoromethyl-benzenesulfonyl)-amino]-cyclohexyloxy}-propionamide] | 61 |  |
| CCN(CCO)CCN(C)C(=O)[C@H]1CC[C@H](CCN(C)c2ncc(Br)cn2)CC1 [Example 15.4, trans-4-{2-[(5-bromo-pyrimidin-2-yl)-methyl-amino]-ethyl}-cyclohexanecarboxylic acid {2-[ethyl-(2-hydroxy-ethyl)-amino]-ethyl}-methyl-amide] | 65 |  |
| CN(C)CCN(C)C(=O)CC[C@H]1CC[C@H](CN(C)S(=O)(=O)c2ccc(C(F)(F)F)cc2)CC1 [Example 22.6, trans-N-(2-dimethylamino-ethyl)-N-methyl-3-(4-{[methyl-(4-trifluoromethyl-benzenesulfonyl)-amino]-methyl}-cyclohexyl)-propionamide] | 56 |  |
